Results: patent US20240000767A1, “COMBINATION OF AN ALPHA2-ADRENOCEPTOR SUBTYPE C (ALPHA-2C) ANTAGONIST WITH A TASK1/3 CHANNEL BLOCKER FOR THE TREATMENT OF SLEEP APNEA” (Bayer Aktiengesellschaft, priority 2020, published 2024)

Molecular target: human ADRA2C receptor (Homo sapiens (Human), UniProt P18825)
Experiment: In vitro activity assay to determine the inhibition of recombinant ADRA2C (CHO-K1 cells, aequorin bioluminescence)
Type: cell-based
Settings: inhibition of noradrenaline-induced bioluminescence signal; some mean values from multiple determinations; read-out: ARα2C IC50
How it was run: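 IC50 is the concentration halving the agonist (noradrenaline)-evoked rise in aequorin luminescence, fitted by 4-parameter Hill function. Read in stable Gαq/aequorin CHO-K1 cells expressing recombinant human ADRA2C.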

Sequence of human ADRA2C receptor (P18825 whole entry): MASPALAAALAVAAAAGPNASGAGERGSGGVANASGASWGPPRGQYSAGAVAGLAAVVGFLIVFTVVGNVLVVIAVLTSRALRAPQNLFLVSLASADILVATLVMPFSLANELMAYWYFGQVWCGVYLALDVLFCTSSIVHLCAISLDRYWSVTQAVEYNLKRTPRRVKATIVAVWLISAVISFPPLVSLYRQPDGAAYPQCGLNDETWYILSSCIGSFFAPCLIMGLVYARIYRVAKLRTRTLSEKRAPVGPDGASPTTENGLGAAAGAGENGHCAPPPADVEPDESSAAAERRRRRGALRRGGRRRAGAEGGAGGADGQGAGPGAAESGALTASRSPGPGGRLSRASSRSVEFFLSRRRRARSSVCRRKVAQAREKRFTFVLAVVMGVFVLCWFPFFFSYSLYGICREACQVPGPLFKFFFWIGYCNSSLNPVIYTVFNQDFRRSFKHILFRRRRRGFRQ

Row | Structure (SMILES) | IC50 [µM]
1 | O=C(NCc1ncc(F)cc1F)c1cnc(N2CCC(N3CCCC(COCC(F)(F)F)C3)CC2)s1 (single isomer, unassigned) [Example 106, ent-N-[(3,5-Difluoropyridin-2-yl)methyl]-2-{3-[(2,2,2-trifluoroethoxy)methyl][1,4′-bipiperidin]-1′-yl}-1,3-thiazole-5-carboxamide] | 0.0005
2 | C[C@@H]1CCCN(C2CCN(c3ncc(C(=O)NCc4cccc(OC(F)(F)F)n4)s3)CC2)C1 [Example 32, 2-[(3R)-3-methyl[1,4′-bipiperidin]-1′-yl]-N-{[6-(trifluoromethoxy)pyridin-2-yl]methyl}-1,3-thiazole-5-carboxamide] | 0.64
3 | O=C(NCc1ncc(F)cc1F)c1cnc(N2CCC(N3CCCC(COCC(F)(F)F)C3)CC2)s1 (racemic) [Example 59, rac-N-[(3,5-Difluoropyridin-2-yl)methyl]-2-{3-[(2,2,2-trifluoroethoxy)methyl][1,4′-bipiperidin]-1′-yl}-1,3-thiazole-5-carboxamide] | 0.011
4 | C[C@@H]1CCCN(C2CCN(c3ncc(C(=O)NC4(c5ncc(F)cc5F)CC4)s3)CC2)C1 [Example 129, N-[1-(3,5-Difluoropyridin-2-yl)cyclopropyl]-2-[(3R)-3-methyl[1,4′-bipiperidin]-1′-yl]-1,3-thiazole-5-carboxamide] | 0.01
5 | Cc1ccc2c(c1)CCN(C1CCN(c3ncc(C(=O)NCc4ncc(F)cc4F)s3)CC1)C2 [Example 146] | 0.00172
6 | C[C@@H]1CCCN(C2CCN(c3ncc(C(=O)NCc4cccc(Cl)c4)s3)CC2)C1 [Example 94] | 0.15
7 | O=C(NCc1ncc(F)cc1F)c1cnc(N2CCC(N3CCCC(COCC4CC(F)(F)C4)C3)CC2)s1 (racemic) [Example 75, rac-2-(3-{[(3,3-Difluorocyclobutyl)methoxy]methyl}[1,4′-bipiperidin]-1′-yl)-N-[(3,5-difluoropyridin-2-yl)methyl]-1,3-thiazole-5-carboxamide] | 0.345
8 | C[C@@H]1CCCN(C2CCN(c3ncc(C(=O)NCc4ccc(Cl)cc4)s3)CC2)C1 [Example 33, N-(4-chlorobenzyl)-2-[(3R)-3-methyl[1,4′-bipiperidin]-1′-yl]-1,3-thiazole-5-carboxamide] | 0.015
9 | C[C@@H]1CCCN(C2CCN(c3ncc(C(=O)NCc4ncccc4Cl)s3)CC2)C1 [Example 26, N-[(3-chloropyridin-2-yl)methyl]-2-[(3R)-3-methyl[1,4′-bipiperidin]-1′-yl]-1,3-thiazole-5-carboxamide] | 0.28
10 | C[C@@H]1CCCN(C2CCN(c3ncc(C(=O)N(C)Cc4ccncc4)s3)CC2)C1 [Example 91] | 0.284
11 | O=C(NCc1ncc(F)cc1F)c1cnc(N2CCC(N3CCCC(COCC4CC4)C3)CC2)s1 (single isomer, unassigned; ent-2) [Example 116, ent-2-{3-[(Cyclopropylmethoxy)methyl][1,4′-bipiperidin]-1′-yl}-N-[(3,5-difluoropyridin-2-yl)methyl]-1,3-thiazole-5-carboxamide] | 0.011
12 | C[C@@H]1CCCN(C2CCN(c3ncc(C(=O)NCc4cccc(F)c4)s3)CC2)C1 [Example 86] | 0.028
13 | Cc1ccc(CNC(=O)c2cnc(N3CCC(N4CCC[C@@H](C)C4)CC3)s2)cc1 [Example 35, N-(4-methylbenzyl)-2-[(3R)-3-methyl[1,4′-bipiperidin]-1′-yl]-1,3-thiazole-5-carboxamide] | 1
14 | CC1(C)CCCN(C2CCN(c3ncc(C(=O)NCc4ncc(F)cc4F)s3)CC2)C1 [Example 63, N-[(3,5-Difluoropyridin-2-yl)methyl]-2-(3,3-dimethyl[1,4′-bipiperidin]-1′-yl)-1,3-thiazole-5-carboxamide] | 0.57
15 | C[C@@H]1CCCN(C2CCN(c3ncc(C(=O)NCc4ncc(F)cc4F)s3)CC2F)C1 (single isomer, unassigned) [Example 52] | 0.0067
16 | C[C@@H]1CCCN(C2CCN(c3ncc(C(=O)Nc4ccc(F)c(C#N)c4)s3)CC2)C1 [Example 89] | 0.23
17 | O=C(NCc1ncc(F)cc1F)c1cnc(N2CCC(N3CCCC(C4CCC4)C3)CC2)s1 (centres unmarked) [Example 138] | 0.0065
18 | O=C(NCc1ncc(F)cc1F)c1cnc(N2CCC(N3CCCC(COCC(F)(F)F)C3)CC2)s1 (single isomer, unassigned) [Example 107, ent-N-[(3,5-Difluoropyridin-2-yl)methyl]-2-{3-[(2,2,2-trifluoroethoxy)methyl][1,4′-bipiperidin]-1′-yl}-1,3-thiazole-5-carboxamide] | 0.037
19 | O=C(NCc1ncc(F)cc1F)c1cnc(N2CCC(N3CCCC(C(F)F)C3)CC2)s1 (racemic) [Example 4, 2-[3-(difluoromethyl)[1,4′-bipiperidin]-1′-yl]-N-[(3,5-difluoropyridin-2-yl)methyl]-1,3-thiazole-5-carboxamide (racemate)] | 0.169
20 | C[C@@H]1CCCN(C2CCN(c3ncc(C(=O)N(C)Cc4ccccc4)s3)CC2)C1 [Example 92] | 0.085
21 | CC(NC(=O)c1cnc(N2CCC(N3CCC[C@@H](C)C3)CC2)s1)c1cc(F)ccc1F (single isomer, unassigned) [Example 46] | 0.0083

Row | Structure (SMILES) | IC50 [µM]
22 | CCOC1CCCN(C2CCN(c3ncc(C(=O)NCc4ncc(F)cc4F)s3)CC2)C1 (single isomer, unassigned) [Example 124, ent-N-[(3,5-Difluoropyridin-2-yl)methyl]-2-(3-ethoxy[1,4′-bipiperidin]-1′-yl)-1,3-thiazole-5-carboxamide] | 0.0029
23 | O=C(NCc1ncc(F)cc1F)c1cnc(N2CCC(N3CCCC(OCC4CC4)C3)CC2)s1 (racemic) [Example 67, rac-2-[3-(Cyclopropylmethoxy)[1,4′-bipiperidin]-1′-yl]-N-[(3,5-difluoropyridin-2-yl)methyl]-1,3-thiazole-5-carboxamide] | 0.0022
24 | C[C@@H]1CCCN(C2CCN(c3ncc(C(=O)NCc4c(Cl)cnn4C)s3)CC2)C1 [Example 79, N-[(4-Chloro-1-methyl-1H-pyrazol-5-yl)methyl]-2-[(3R)-3-methyl[1,4′-bipiperidin]-1′-yl]-1,3-thiazole-5-carboxamide] | 0.0503
25 | O=C(NCc1ncc(F)cc1F)c1cnc(N2CCC(N3CCC[C@@H](C(F)F)C3)CC2)s1 [Example 39, 2-[(3R)-3-(Difluoromethyl)[1,4′-bipiperidin]-1′-yl]-N-[(3,5-difluoropyridin-2-yl)methyl]-1,3-thiazole-5-carboxamide] | 0.135
26 | O=C(NCc1ncc(F)cc1F)c1cnc(N2CCC(N3CCCC4(COC4)C3)CC2)s1 [Example 136] | 0.32
27 | C[C@@H]1CCCN(C2CCN(c3ncc(C(=O)NCc4ccccc4Cl)s3)CC2)C1 [Example 151] | 0.17
28 | CCOC1CCCN(C2CCN(c3ncc(C(=O)NCc4ncc(F)cc4F)s3)CC2)C1 (racemic) [Example 70, rac-N-[(3,5-Difluoropyridin-2-yl)methyl]-2-[3-ethoxy[1,4′-bipiperidin]-1′-yl]-1,3-thiazole-5-carboxamide] | 0.022
29 | C[C@@H]1CCCN(C2CCN(c3nc(C4CC4)c(C(=O)NCc4ncc(F)cc4F)s3)CC2)C1 [Example 122, 4-Cyclopropyl-N-[(3,5-difluoropyridin-2-yl)methyl]-2-[(3R)-3-methyl[1,4′-bipiperidin]-1′-yl]-1,3-thiazole-5-carboxamide] | 0.013
30 | Cc1ccnc(CNC(=O)c2cnc(N3CCC(N4CCC[C@@H](C)C4)CC3)s2)c1 [Example 25, 2-[(3R)-3-methyl[1,4′-bipiperidin]-1′-yl]-N-[(4-methylpyridin-2-yl)methyl]-1,3-thiazole-5-carboxamide] | 2.4
31 | O=C(NCc1ncc(F)cc1F)c1cnc(N2CCC(N3CCC[C@@H](OCC4CC(F)(F)C4)C3)CC2)s1 [Example 44, 2-{(3R)-3-[(3,3-Difluorocyclobutyl)methoxy][1,4′-bipiperidin]-1′-yl}-N-[(3,5-difluoropyridin-2-yl)methyl]-1,3-thiazole-5-carboxamide] | 0.0412
32 | O=C(NCc1ncc(F)cc1F)c1cnc(N2CCC(N3CCC[C@@H](CF)C3)CC2)s1 [Example 41, N-[(3,5-Difluoropyridin-2-yl)methyl]-2-[(3R)-3-(fluoromethyl)[1,4′-bipiperidin]-1′-yl]-1,3-thiazole-5-carboxamide] | 0.243
33 | CC(NC(=O)c1cnc(N2CCC(N3CCC[C@@H](C)C3)CC2)s1)c1cc(F)ccc1F (single isomer, unassigned) [Example 47] | 0.025
34 | C[C@@H]1CCCN(C2CCN(c3ncc(C(=O)NCc4cccc(O)c4)s3)CC2)C1 [Example 82] | 0.102
35 | C[C@@H]1CCCN(C2CCN(c3ncc(C(=O)NCc4ccc(C(F)(F)F)cc4)s3)CC2)C1 [Example 22, 2-[(3R)-3-Methyl[1,4′-bipiperidin]-1′-yl]-N-[4-(trifluoromethyl)benzyl]-1,3-thiazole-5-carboxamide] | 0.64
36 | C[C@@H]1CCCN(C2CCN(c3ncc(C(=O)NCc4ncccc4F)s3)CC2)C1 [Example 20, N-[(3-Fluoropyridin-2-yl)methyl]-2-[(3R)-3-methyl[1,4′-bipiperidin]-1′-yl]-1,3-thiazole-5-carboxamide] | 0.11
37 | C[C@@H]1CCCN(C2CCN(c3ncc(C(=O)NCc4ccccc4F)s3)CC2)C1 [Example 87] | 0.0255
38 | CC(CNC(=O)c1cnc(N2CCC(N3CCC[C@@H](C)C3)CC2)s1)c1ccccc1 (some centres unmarked) [Example 83] | 0.0981
39 | O=C(NCc1ncc(F)cc1F)c1cnc(N2CCC(N3CCCC(OC4CCC4)C3)CC2)s1 (racemic) [Example 109, rac-2-[3-(Cyclobutyloxy)[1,4′-bipiperidin]-1′-yl]-N-[(3,5-difluoropyridin-2-yl)methyl]-1,3-thiazole-5-carboxamide] | 0.00085
40 | CCc1nc(N2CCC(N3CCC[C@@H](C)C3)CC2)sc1C(=O)NCc1ncc(F)cc1F [Example 130, N-[(3,5-Difluoropyridin-2-yl)methyl]-4-ethyl-2-[(3R)-3-methyl[1,4′-bipiperidin]-1′-yl]-1,3-thiazole-5-carboxamide] | 0.00054
41 | C[C@@H]1CCCN(C2CCN(c3ncc(C(=O)NCc4cccnc4)s3)CC2)C1 [Example 85] | 0.6
